US20070117770A1, “Human ribosomal DNA (rDNA) and ribosomal RNA (rRNA) nucleic acids and uses thereof” (Cylene Pharmaceuticals, Inc., priority 2005, published 2007)

How the values were obtained:
Assay in all cases: Protein kinase inhibition assay
p70S6K(h) = type: biochemical, human; conditions: 2.5 μM
Protocol: (§1) Certain compounds were tested for activity in protein kinase inhibition assays. All substrates were dissolved and diluted to working stocks in de-ionized water, apart from histone H1 (10× working stock in 20 mM MOPS pH 7.0), PDKtide (10× working stock in 50 mM Tris pH 7.0) ATF2 (which is typically stored at a 20× working stock in 50 mM Tris pH 7.5, 150 mM NaCl, 0.1 mM EGTA, 0.03% Brij-35, 50% glycerol, 1 mM benzamidine, 0.2 mM PMSF and 0.1% R-mercaptoethanol), KKLNRTLSFAEPG (SEQ ID NO:203) and RRRLSFAEPG (SEQ ID NO:204) (50 mM HEPES pH 7.4) and GGEEEEYFELVKKKK (SEQ ID NO:205) (20 mM MOPS pH 7.0). All kinases were pre-diluted to a 10× working concentration prior to addition into the assay. The composition of the dilution buffer for each kinase is detailed below.
(§2) In a final reaction volume of 25 μl, p70S6K (h) (5-10 mU) is incubated with 8 mM MOPS pH 7.0, 0.2 mM EDTA, 100 μM KKRNRTLTV (SEQ ID NO:212), 10 mM MgAcetate and [gamma-33P-ATP] (specific activity approx. 500 cpm/pmol, concentration as required). The reaction is initiated by the addition of the MgATP mix. After incubation for 40 minutes at room temperature, the reaction is stopped by the addition of 5 μl of a 3% phosphoric acid solution. 10 μl of the reaction is then spotted onto a P30 filtermat and washed three times for 5 minutes in 75 mM phosphoric acid and once in methanol prior to drying and scintillation counting.

JAK2(h) = JAK2(h) (Homo sapiens, UniProt O60674); type: biochemical; conditions: read-out: percent residual activity of JAK2(h)
JAK2(h), sequence (O60674 whole entry): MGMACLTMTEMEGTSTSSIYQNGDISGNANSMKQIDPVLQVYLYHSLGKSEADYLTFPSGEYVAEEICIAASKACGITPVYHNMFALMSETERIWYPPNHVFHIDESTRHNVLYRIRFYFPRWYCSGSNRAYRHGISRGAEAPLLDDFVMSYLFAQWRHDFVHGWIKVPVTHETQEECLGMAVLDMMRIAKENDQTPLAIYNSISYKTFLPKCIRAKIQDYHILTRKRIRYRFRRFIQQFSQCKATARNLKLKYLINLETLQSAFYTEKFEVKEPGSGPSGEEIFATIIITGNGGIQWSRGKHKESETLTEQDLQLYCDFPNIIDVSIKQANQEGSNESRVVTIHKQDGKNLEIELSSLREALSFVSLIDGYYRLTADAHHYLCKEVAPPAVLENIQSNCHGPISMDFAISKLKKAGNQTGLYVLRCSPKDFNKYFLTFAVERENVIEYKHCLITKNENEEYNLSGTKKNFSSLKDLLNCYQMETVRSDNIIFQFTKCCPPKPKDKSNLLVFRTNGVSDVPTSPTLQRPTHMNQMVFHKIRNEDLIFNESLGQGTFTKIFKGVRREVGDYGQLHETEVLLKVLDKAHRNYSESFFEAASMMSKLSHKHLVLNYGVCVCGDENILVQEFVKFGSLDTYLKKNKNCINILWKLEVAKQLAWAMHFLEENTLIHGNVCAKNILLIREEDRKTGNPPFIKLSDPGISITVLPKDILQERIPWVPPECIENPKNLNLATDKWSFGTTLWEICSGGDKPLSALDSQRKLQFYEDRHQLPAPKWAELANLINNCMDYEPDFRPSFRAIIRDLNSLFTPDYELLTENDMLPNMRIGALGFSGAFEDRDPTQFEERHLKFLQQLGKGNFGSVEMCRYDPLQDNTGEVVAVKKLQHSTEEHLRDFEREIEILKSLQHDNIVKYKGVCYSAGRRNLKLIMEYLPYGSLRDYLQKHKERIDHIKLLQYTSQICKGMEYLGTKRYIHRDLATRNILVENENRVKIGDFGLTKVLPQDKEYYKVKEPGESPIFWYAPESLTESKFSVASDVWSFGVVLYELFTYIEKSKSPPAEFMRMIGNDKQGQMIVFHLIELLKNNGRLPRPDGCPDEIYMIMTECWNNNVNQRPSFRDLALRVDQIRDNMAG
Protocol: as §1
as §2, with “JAK2” for “p70S6K”, “KKRNRTLTV” left out, “NO:217),” for “NO:212),”

Snk(h) = Snk(h) (Homo sapiens, UniProt Q9NYY3); type: biochemical; conditions: read-out: percent residual activity of Snk(h)
Snk(h), sequence (Q9NYY3 whole entry): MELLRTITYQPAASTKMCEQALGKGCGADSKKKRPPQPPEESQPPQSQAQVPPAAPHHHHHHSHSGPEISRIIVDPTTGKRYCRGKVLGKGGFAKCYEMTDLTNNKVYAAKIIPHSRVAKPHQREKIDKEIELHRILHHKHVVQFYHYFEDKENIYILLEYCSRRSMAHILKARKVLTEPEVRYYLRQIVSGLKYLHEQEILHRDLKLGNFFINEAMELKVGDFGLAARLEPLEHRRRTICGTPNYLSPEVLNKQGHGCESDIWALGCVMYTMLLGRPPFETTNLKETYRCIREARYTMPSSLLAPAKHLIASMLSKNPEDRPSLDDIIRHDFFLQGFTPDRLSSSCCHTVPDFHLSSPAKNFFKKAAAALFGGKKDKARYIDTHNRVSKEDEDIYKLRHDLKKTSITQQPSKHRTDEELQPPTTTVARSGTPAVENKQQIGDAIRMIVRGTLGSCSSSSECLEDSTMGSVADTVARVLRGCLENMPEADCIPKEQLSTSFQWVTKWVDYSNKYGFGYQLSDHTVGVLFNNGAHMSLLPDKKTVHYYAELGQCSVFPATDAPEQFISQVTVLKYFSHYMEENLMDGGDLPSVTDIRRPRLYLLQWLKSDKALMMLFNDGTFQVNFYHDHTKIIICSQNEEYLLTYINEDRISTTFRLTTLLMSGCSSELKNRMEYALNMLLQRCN
Protocol: as §1
as §2, with “Snk” for “p70S6K”, “2 mg/ml casein,” for “100 μM KKRNRTLTV (SEQ ID NO:212),”

ALK4(h) = ALK4(h) (Homo sapiens, UniProt P36896); type: biochemical; conditions: read-out: percent residual activity of ALK4(h)
ALK4(h), sequence (P36896 24-505): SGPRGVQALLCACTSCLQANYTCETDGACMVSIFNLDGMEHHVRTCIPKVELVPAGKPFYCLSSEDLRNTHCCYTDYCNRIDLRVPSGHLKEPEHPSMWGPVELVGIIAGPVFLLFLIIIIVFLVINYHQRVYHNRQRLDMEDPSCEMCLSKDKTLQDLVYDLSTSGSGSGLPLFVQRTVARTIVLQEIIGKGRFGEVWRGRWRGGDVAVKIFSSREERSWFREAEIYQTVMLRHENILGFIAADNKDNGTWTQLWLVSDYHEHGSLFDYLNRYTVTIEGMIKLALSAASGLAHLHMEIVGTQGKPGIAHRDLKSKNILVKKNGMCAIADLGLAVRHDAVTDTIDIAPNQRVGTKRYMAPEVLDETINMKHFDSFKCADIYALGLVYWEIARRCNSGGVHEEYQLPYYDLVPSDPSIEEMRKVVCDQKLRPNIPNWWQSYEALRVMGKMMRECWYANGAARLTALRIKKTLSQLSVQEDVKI
Protocol: as §1
as §2, with “ALK4” for “p70S6K”, “2 mg/ml casein,” for “100 μM KKRNRTLTV (SEQ ID NO:212),”

SAPK4(h) = SAPK4(h) (Homo sapiens, UniProt O15264); type: biochemical; conditions: read-out: percent residual activity of SAPK4(h)
SAPK4(h), sequence (O15264 whole entry): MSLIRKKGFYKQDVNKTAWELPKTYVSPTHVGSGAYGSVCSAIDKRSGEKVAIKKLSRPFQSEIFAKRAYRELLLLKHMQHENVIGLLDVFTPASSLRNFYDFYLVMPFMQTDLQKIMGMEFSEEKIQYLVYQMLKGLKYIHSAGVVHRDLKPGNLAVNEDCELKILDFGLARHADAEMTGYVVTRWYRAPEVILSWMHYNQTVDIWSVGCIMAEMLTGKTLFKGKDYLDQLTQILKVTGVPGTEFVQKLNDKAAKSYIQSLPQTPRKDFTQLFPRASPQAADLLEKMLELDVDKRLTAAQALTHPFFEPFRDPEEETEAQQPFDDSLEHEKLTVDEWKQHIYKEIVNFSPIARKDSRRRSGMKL
Protocol: as §1
as §2, with “SAPK4” for “p70S6K”, “25” for “8”, “Tris” for “MOPS”, “7.5, 0.02” for “7.0, 0.2”, “EGTA, 0.33 mg/ml myelin basic protein,” for “EDTA, 100 μM KKRNRTLTV (SEQ ID NO:212),”

Rsk1(r) = Rsk1(r) (Rattus norvegicus, UniProt Q63531); type: biochemical; conditions: read-out: percent residual activity of Rsk1(r)
Rsk1(r), sequence (Q63531 whole entry): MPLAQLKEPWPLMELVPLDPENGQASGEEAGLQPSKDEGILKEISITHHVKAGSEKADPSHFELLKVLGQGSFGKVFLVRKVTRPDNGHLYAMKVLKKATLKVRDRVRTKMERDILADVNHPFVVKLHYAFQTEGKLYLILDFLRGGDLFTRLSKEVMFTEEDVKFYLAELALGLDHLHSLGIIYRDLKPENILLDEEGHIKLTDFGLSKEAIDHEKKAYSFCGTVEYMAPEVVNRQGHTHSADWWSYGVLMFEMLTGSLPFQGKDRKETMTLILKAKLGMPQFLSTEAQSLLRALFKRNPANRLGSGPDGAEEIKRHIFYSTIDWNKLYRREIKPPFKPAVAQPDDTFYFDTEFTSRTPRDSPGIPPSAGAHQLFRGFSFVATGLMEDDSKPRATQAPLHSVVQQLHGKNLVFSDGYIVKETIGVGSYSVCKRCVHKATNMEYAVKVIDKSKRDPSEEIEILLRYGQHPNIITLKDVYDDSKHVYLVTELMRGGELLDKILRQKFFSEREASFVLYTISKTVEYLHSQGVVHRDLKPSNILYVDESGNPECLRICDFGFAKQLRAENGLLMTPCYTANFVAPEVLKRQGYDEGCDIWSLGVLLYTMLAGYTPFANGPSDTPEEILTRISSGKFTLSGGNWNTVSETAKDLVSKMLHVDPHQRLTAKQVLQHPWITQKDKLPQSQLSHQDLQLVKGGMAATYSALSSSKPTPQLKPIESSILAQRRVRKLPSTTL
Protocol: as §1
as §2, with “Rsk1 (r)” for “p70S6K (h)”, “30” for “100”, “KKKNRTLSVA” for “KKRNRTLTV”

BTK(h) = BTK(h) (Homo sapiens, UniProt Q06187); type: biochemical; conditions: read-out: percent residual activity of BTK(h)
BTK(h), sequence (Q06187 whole entry): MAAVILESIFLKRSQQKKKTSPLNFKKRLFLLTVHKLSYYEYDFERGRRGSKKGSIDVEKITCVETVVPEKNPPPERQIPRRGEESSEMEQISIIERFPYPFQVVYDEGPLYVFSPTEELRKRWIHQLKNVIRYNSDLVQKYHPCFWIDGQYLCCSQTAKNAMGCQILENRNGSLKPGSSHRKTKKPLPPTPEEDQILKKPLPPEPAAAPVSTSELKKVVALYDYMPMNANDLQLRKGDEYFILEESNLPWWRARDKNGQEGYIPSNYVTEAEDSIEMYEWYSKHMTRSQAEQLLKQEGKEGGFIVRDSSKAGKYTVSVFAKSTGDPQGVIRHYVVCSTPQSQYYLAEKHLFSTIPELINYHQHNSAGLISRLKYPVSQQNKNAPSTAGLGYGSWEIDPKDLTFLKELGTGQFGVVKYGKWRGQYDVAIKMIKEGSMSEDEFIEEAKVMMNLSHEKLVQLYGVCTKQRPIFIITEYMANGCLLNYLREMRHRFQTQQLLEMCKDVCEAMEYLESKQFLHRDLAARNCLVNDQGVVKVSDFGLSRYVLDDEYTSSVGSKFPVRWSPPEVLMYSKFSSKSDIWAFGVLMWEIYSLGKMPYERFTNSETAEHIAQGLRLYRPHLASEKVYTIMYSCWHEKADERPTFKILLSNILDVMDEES
Protocol: as §1
In a final reaction volume of 25 μl, BTK (h) (5-10 mU) is incubated with 8 mM MOPS pH 7.0, 0.2 mM EDTA, 250 μM KVEKIGEGTYGVVYK (SEQ ID NO:211) (Cdc2 peptide), 10 mM MgAcetate and [gamma-33P-ATP] (specific activity approx. 500 cpm/pmol, concentration as required). The reaction is initiated by the addition of the MgATP mix. After incubation for 40 minutes at room temperature, the reaction is stopped by the addition of 5 μl of a 3% phosphoric acid solution. […]

Row | Structure (SMILES) | inhibition of p70S6K (p70S6K(h)) | percent residual activity of p70S6K(h) (p70S6K(h)) [%] | remaining activity at 2.5 µM (JAK2(h)) [%] | remaining activity at 2.5 µM (Snk(h)) [%] | remaining activity at 2.5 µM (ALK4(h)) [%] | remaining activity at 2.5 µM (SAPK4(h)) [%] | remaining activity at 2.5 µM (Rsk1(r)) [%] | remaining activity at 2.5 µM (BTK(h)) [%]
1 | CN1CCCC1CCNC(=O)c1cn2c3c(c(N4CCC(c5cnccn5)C4)c(F)cc3c1=O)Oc1cc3ccccc3cc1-2 (stereo not drawn) [Compound A-1] | greater than 80% | 18 | 105 | 125 | 108 | 31 | 85 | 60
2 | CC(=O)N1CCN(c2ccc3c(=O)c(C(=O)NCCN4CCCC4)c4n(C)c5ccccc5n4c3n2)CC1 [Compound B-1] |  | 97 | 116 | 125 | 103 | 105 | 110 | 101
